Measured values published in patent publication US20090163698A1, “Method for Preparing Antibody Conjugates” (priority 2007, published 2009).

Assays:
[1] = system: A375.S2 cells; assay: Binding and internalization study at 37° C., confocal microscopy; type: cell-based, human; settings: 37° C. for 10 min, washed, incubated 1 hour at 37° C.
Procedure: A375.S2 cells were harvested by scraping and then resuspended to obtain individualized cells and rejuvenated for 1 hour, at 37° C. About 1 million cells of each tumor type were counted and distributed into individual centrifugation tubes. The tubes were spun to obtain a cell pellet.
For binding and internalization, the cells were treated with the targeted liposome formulation at 37° C. for 10 min with mild shaking (140 rpm). Cells were treated with the liposome formulations containing either a doxorubicin payload or a fluorescent marker (Dextran Alexa Fluor 488). Treatment was terminated by adding 1 mL of washing media (serum free), vortexing briefly, and centrifuging to recover a cell pellet The cells in the pellet were resuspend in washing media, vigorously shaken for 10 minutes at 37° C. and then centrifuged again (440 rpm). The cell pellet was left in 100 μL of media, an aliquot of 8 μL was taken and placed on a glass slide for observation under a confocal microscope.
Binding and internalization of the targeted liposomes to A375.S2 cells was evaluated after various incubation times of the cells and the liposome formulation.

[2] = system: murine αVβ3/5 integrin; settings: cited from earlier work
Sequence of murine αVβ3/5 integrin (P43406 31-885 limits assumed): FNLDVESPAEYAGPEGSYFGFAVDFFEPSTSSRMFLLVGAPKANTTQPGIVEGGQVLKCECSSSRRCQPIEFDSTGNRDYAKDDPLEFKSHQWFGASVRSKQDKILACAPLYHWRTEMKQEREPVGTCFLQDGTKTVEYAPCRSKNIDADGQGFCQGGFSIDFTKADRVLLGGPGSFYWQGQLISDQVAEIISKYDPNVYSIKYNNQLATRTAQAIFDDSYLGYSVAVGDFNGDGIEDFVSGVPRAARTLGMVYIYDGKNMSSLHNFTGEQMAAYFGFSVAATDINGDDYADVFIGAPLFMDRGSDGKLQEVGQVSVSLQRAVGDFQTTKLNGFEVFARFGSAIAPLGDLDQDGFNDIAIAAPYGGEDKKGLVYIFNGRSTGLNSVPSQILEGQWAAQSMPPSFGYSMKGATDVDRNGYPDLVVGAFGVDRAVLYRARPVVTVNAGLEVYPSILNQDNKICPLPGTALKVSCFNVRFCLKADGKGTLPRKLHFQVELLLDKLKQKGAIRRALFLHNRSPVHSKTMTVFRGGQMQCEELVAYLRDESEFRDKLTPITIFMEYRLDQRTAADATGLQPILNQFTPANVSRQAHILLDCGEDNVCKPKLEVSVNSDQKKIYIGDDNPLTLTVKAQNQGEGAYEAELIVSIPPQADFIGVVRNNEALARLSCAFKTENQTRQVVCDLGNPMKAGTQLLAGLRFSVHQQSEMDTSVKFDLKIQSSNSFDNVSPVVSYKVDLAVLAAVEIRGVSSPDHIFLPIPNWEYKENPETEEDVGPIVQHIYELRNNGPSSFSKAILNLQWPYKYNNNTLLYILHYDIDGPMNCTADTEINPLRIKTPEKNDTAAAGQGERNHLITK
Sequence of murine αVβ3/5 integrin (P43406 887-1044 limits assumed): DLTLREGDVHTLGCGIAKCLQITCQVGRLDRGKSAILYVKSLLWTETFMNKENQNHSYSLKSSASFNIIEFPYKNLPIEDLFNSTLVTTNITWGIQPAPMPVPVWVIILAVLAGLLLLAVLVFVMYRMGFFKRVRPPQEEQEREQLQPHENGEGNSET

Molecule | Binding and internalization (confocal microscopy) [1] | Binding to murine αVβ3/5 integrin [2]
COc1cccc2c1C(=O)c1c(O)c3c(c(O)c1C2=O)C[C@@](O)(C(=O)CO)C[C@@H]3O[C@H]1C[C@H](N)[C@H](O)[C@H](C)O1 [free dox, doxorubicin] | drug internalization is evident | –
CNTO95: full-length human anti-alpha-V antibody of the IgG1k type, SEQ ID NO: 1 and SEQ ID NO: 2 | – | does not bind
